Data published in patent US20110046378A1, “Novel Imaging Agents for Detecting Neurological Dysfunction” (SIEMENS MEDICAL SOLUTIONS USA, INC., priority 2008, published 2011).
Read-outs that look alike come from different tables or passages of the source.

What was measured:
Aβ monomer = settings: read-out: Binding Affinity IC50; cited from earlier work
Aβ(1-42) Fibrils = Aβ(1-42) Fibrils (Homo sapiens, UniProt P05067); test: Biacore (SPR) screening on immobilized Aβ42 fibrils; type: binding; settings: for BINDING LEVELS TO Aβ(1-42) Fibrils: screening compounds at 10 uM; for Binding to fibrils (Aβ1-42): carbazole-based hits;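 as to BINDING LEVELS TO Aβ(1-42) Fibrils: minus means no binding and more plus signs mean higher affinity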
Sequence of Aβ(1-42) Fibrils (P05067 672-713 limits assumed): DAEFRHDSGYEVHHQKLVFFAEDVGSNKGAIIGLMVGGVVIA

[1] = target: Aβ(1-42) Oligomers/Polymers (Homo sapiens, UniProt P05067); test: Biacore (SPR) screening on immobilized Aβ42 oligomers/soluble polymers; type: binding; set-up: Binding to oligomers/polymers (Aβ1-42): key to the marks not given beside the values; settings: for BINDING LEVELS TO Aβ(1-42) Oligomers/Polymers: screening compounds at 10 uM; for Binding to oligomers/polymers (Aβ1-42): carbazole-based hits
Sequence of Aβ(1-42) Oligomers/Polymers (P05067 672-713 limits assumed): as above

[2] = target: T1, Amyloid (AD patient's brain slice) (Homo sapiens, UniProt P05067); test: IC50 determination with [18F]-PiB by ex vivo competition assay using autoradiography staining; type: binding
T1 construct: The brain slices were 20 um thick
T1 sequence (P05067 672-711 limits assumed): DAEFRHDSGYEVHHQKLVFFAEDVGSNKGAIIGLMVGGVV
Excerpt: (§1) Ex Vivo Competition Assay Using Amyloid (AD patient's brain slice) Autoradiography Staining

[3] = tested on: Amyloid (AD patient's brain slice); test: Amyloid autoradiography staining of AD patient's brain slices, grey/white matter binding with wash protocols; set-up: species or system human
Protocol: as §1
A study was conducted to examine the grey to white matter binding ratios for 4 different tracers: CB-001, CB-003, FDDNP and F-PiB (FIG. 7 and FIG. 8). […] After the human brain slices from AD patients were incubated with a given tracer for 30 min, the slices were washed with various EtOH:water solutions in an attempt to optimize the grey-to white matter ratios (FIG. 9). The results were surprising and unexpected in view of previous work performed by other researchers. CB-001 has a slightly higher c Log P than FDDNP (3.8 vs 3.4) and would be expected to have poorer washout than FDDNP based on these values. […] More specifically, the white matter binding of FDDNP is several shades darker than CB-001's white matter binding, indicating low non-specific binding of CB-001.

[4] = tested on: Amyloid (AD brain slices); test: [18F]-CB001 competition studies on AD brain slices; type: binding, human; settings: cold competitor, increasing concentrations
[5] = determination 4, vs [18F]-PiB, read-out: IC50 4
[6] = mean of determinations, vs [18F]-PiB, read-out: Average IC50
[7] = determination 1, vs [18F]-PiB, read-out: IC50 1
[8] = determination 3, vs [18F]-PiB, read-out: IC50 3
[9] = determination 5, vs [18F]-PiB, read-out: IC50 5
[10] = determination 6, vs [18F]-PiB, read-out: IC50 6
[11] = determination 13, vs [18F]-PiB, read-out: IC50 13
[12] = determination 7, vs [18F]-PiB, read-out: IC50 7

Row | Structure (SMILES) | BINDING LEVELS TO Aβ(1-42) Fibrils (Aβ(1-42) Fibrils) | BINDING LEVELS TO Aβ(1-42) Oligomers/Polymers [1] | other results
1 | Nc1c(/N=N/c2ccc(-c3ccc(/N=N/c4cc(S(=O)(=O)O)c5ccccc5c4N)cc3)cc2)cc(S(=O)(=O)O)c2ccccc12 [Congo Red] |  |  | IC50 (Aβ monomer): 2000 to 10000 nM
2 | Cc1cc(C)c2oc(-c3cccs3)c(O)c(=O)c2c1 | − | + | 
3 | Cc1nccc2c1[nH]c1cc(O)ccc12 [drawing 32] | + | ++ | 
4 | Cc1oc2cc(O)ccc2c(=O)c1-c1nncn1-c1ccccc1 | + | ++ | 
5 | O=CNc1ccc2c(c1)[nH]c1cc(OCCOCCOCCF)ccc12 [CB-010, N-(7-(2-(2-(2-fluoroethoxy)ethoxy)ethoxy)-9H-carbazol-2-yl)formamide] |  |  | IC50 [2, 5]: 900 nM; IC50 [2, 6]: 900 nM
6 | Oc1ccc2c(c1)[nH]c1ccccc12 [drawing 135] |  |  | Binding to fibrils (Aβ1-42) (Aβ(1-42) Fibrils): +; Binding to oligomers/polymers (Aβ1-42) [1]: +++
7 | CC1NCCc2cc(O)c(O)cc21 (centres unmarked) | + | ++ | 
8 | Oc1ccc(-c2nc(-c3ccncc3)c(-c3ccc(F)cc3)[nH]2)cc1 | ++ | ++ | 
9 | Cc1ccc(O)c(-c2ccno2)c1 | + | + | 
10 | O=c1c(O)c(-c2ccc(O)c(O)c2)oc2cc(O)ccc12 | +++++ | ++++++ | 
11 | Fc1ccc(-c2cn(-c3ccc(Cl)c(Cl)c3)nn2)c(F)c1 | − | + | 
12 | O=c1cc(-c2ccccc2)oc2ccc(O)cc12 | + | ++ | 
13 | Nc1ccc(O)c2ncccc12 | + | ++ | 
14 | CN(C)c1ccc2c(c1)[nH]c1cc(OCCOCCOCCF)ccc12 [CB-007, 7-(2-(2-(2-fluoroethoxy)ethoxy)ethoxy)-N,N-dimethyl-9H-carbazol-2-amine] |  |  | IC50 [2, 7]: 260 nM; IC50 [2, 8]: 170 nM; IC50 [2, 9]: 200 nM; IC50 [2, 10]: 290 nM; IC50 [2, 11]: 300 nM; IC50 [2, 6]: 244 nM
15 | O=CNc1ccc2c(c1)[nH]c1cc(OCCOCCF)ccc12 [CB-024, N-(7-(2-(2-fluoroethoxy)ethoxy)-9H-carbazol-2-yl)formamide] |  |  | IC50 [2, 12]: 540 nM; IC50 [2, 6]: 540 nM
16 | Nc1cccc(-c2cn(-c3cc(Cl)cc(Cl)c3)nn2)c1 | + | + | 
17 | C[S+]([O-])c1ccc(-c2nc(-c3ccc(F)cc3)c(-c3ccncc3)[nH]2)cc1 (centres unmarked) | + | ++ | 
18 | CC(=C(C#N)C#N)c1ccc2cc(N(C)CCF)ccc2c1 [FDDNP, reference compound] |  |  | Grey/white matter binding ratio using mild wash conditions ([3]; 30 min incubation, PBS, 30%/40%/20% EtOH:water, PBS, 20 um AD brain slices): Poor; Grey/white matter binding ratio using harsh FDDNP wash conditions ([3]; 30 min incubation, PBS, 70%/90%/70% EtOH:water, PBS, 20 um AD brain slices): Fair; order of (non-specific) white matter binding ([3]; AD brain slices): FDDNP>CB001>[18F]-PiB>CB003; blocking of [18F]-CB001 staining [4]: much less capable of blocking [18F]-CB001 staining
19 | CNc1ccc2c(c1)[nH]c1cc(OCCOCCOCCF)ccc12 [CB-004, 7-(2-(2-(2-fluoroethoxy)ethoxy)ethoxy)-N-methyl-9H-carbazol-2-amine] |  |  | IC50 [2, 7]: 260 nM; IC50 [2, 8]: 350 nM; IC50 [2, 9]: 300 nM; IC50 [2, 10]: 300 nM; IC50 [2, 11]: 400 nM; IC50 [2, 6]: 322 nM
20 | Cc1oc2c(C)c(O)ccc2c(=O)c1-c1nncn1-c1ccccc1 | − | ++ | 
21 | COc1cccc2oc(-c3ccccc3)cc(=O)c12 | − | + | 

Row | Structure (SMILES) | BINDING LEVELS TO Aβ(1-42) Fibrils (Aβ(1-42) Fibrils) | BINDING LEVELS TO Aβ(1-42) Oligomers/Polymers [1] | other results
22 | [11CH3]Nc1ccc(-c2nc3ccc(O)cc3s2)cc1 [PiB, reference compound] |  |  | blocking of [18F]-CB001 staining [4]: blocks [18F]-CB001 staining with increasing concentrations
23 | Cc1c(-c2ccccc2)c(=O)oc2cc(O)ccc12 | − | + | 
24 | Fc1cc(F)cc(-c2cn(-c3cc(Cl)ccc3Cl)nn2)c1 | − | + | 
25 | COc1c(-c2ccco2)oc2ccccc2c1=O | + | + | 
26 | O=c1c(O)c(-c2cccc(O)c2)oc2ccc(O)cc12 | ++ | ++++ | 
27 | O=c1cc(-c2ccccc2)oc2cc(O)ccc12 | + | + | 
28 | O=S(=O)(O)c1cccc2cccc(Nc3ccccc3)c12 [ANS] |  |  | IC50 (Aβ monomer): > 100000 nM
29 | Cc1nccc2c1[nH]c1cc(O)ccc12 [drawing 134] |  |  | Binding to fibrils (Aβ1-42) (Aβ(1-42) Fibrils): +; Binding to oligomers/polymers (Aβ1-42) [1]: ++
30 | Cc1ccc2c(c1)sc(-c1ccc(N(C)C)cc1)[n+]2C [Thioflavin T] |  |  | IC50 (Aβ monomer): > 500000 nM
31 | Fc1ccc(-c2cn(-c3cccc(C(F)(F)F)c3)nn2)c(F)c1 | + | + | 
32 | Oc1cnc(Cl)c2ccccc12 | − | + | 
33 | COc1ccc2c(=O)c(-c3ccccc3)c(C)oc2c1OC | − | + | 
34 | O=CNc1ccc2c(c1)[nH]c1cc(OCCF)ccc12 [CB-012, N-(7-(2-fluoroethoxy)-9H-carbazol-2-yl)formamide] |  |  | IC50 [2, 5]: 610 nM; IC50 [2, 9]: 300 nM; IC50 [2, 10]: 450 nM; IC50 [2, 12]: 390 nM; IC50 [2, 6]: 438 nM
35 | O=c1c(O)c(-c2ccccc2)oc2ccc(O)cc12 | ++ | +++ | 
36 | Cc1cc(C)c2oc(-c3ccco3)c(O)c(=O)c2c1 | − | + | 
37 | Fc1ccc(-c2nc(-c3ccccc3)c(-c3ccccc3)[nH]2)cc1 | − |  | 
38 | Fc1cc(F)cc(-c2cn(-c3ccc(F)cc3F)nn2)c1 | − | ++++ | 
39 | COc1cc(/C=C/C(=O)/C=C(O)/C=C/c2ccc(O)c(OC)c2)ccc1O [Curcumin] |  |  | IC50 (Aβ monomer): 10000 to 20000 nM
40 | O=c1cc(-c2ccccc2)c2ccc(O)c(O)c2o1 | +++ | +++++ | 
41 | Nc1ccc2[nH]c(C(F)(F)F)nc2c1 | + | ++ | 

The next lines start with results.

Row | BINDING LEVELS TO Aβ(1-42) Fibrils (Aβ(1-42) Fibrils) | BINDING LEVELS TO Aβ(1-42) Oligomers/Polymers [1] | Structure (SMILES) | other results
42 | − | + | CCOc1ccc(Oc2c(C)oc3cc(O)ccc3c2=O)cc1 | 
43 | + | + | Cc1c(-c2ccccc2)oc2cc(O)ccc2c1=O | 
44 | ++ | ++++ | O=c1c(O)c(-c2ccccc2)[nH]c2ccccc12 | 
45 | + | + | CCOc1ccc2c(=O)c(Oc3ccccc3)c(C)oc2c1 | 
46 | + | +++ | COc1ccc2oc(-c3ccc(OC)c(OC)c3)c(OC)c(=O)c2c1 | 
47 | − | + | COc1cccc(-c2oc3cc(OC)ccc3c(=O)c2OC)c1 | 
48 | + | +++ | Oc1ccc2c(c1)[nH]c1ccccc12 [drawing 33] | 
49 | + | + | Cc1oc2cc(O)ccc2c(=O)c1-c1ccc(F)cc1 | 
50 | − | + | CCc1cc2c(=O)c(-c3ccc(F)cc3)c(C)oc2cc1O | 
